The record followed here is PMC11975020, “Chemoproteomic analysis reveals RECQL4 as a mediator of nitroalkene-dependent double-strand break repair inhibition in cancer” (Research Square, 2025).

In this test the target is T1, RECQL4 (Homo sapiens, UniProt O94761).
T1 construct: RECQL4^449–1111 (lacking the N-terminus)
T1 sequence (O94761 449-1111): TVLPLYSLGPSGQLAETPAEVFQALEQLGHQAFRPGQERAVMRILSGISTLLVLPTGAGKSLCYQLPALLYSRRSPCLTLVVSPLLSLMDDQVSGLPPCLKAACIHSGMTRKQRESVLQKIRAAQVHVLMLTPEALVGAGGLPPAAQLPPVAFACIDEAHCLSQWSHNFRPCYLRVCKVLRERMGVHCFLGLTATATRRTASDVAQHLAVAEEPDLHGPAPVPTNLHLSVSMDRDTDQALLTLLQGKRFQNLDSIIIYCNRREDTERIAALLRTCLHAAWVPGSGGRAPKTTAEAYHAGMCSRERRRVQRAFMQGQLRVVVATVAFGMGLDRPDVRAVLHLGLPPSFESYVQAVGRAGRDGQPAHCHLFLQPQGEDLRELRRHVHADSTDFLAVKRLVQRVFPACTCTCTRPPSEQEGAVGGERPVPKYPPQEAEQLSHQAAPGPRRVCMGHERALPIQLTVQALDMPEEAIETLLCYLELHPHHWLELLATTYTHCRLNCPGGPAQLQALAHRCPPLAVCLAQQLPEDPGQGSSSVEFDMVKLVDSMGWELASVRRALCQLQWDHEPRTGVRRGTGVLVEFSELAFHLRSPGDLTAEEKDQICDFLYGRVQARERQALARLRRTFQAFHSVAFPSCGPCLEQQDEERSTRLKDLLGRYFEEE
Description: gel-based helicase unwinding assay with purified protein; confirmed by real-time fluorescence helicase assay; LC-MS/MS adduct at Cys1052 in U2OS cells. In kind it is biochemical.

`CCCCCCCC/C(=C\CCCCCCCC(=O)O)[N+](=O)[O-]` [OA-NO2] came in with an IC50 of 252 nM.

The IC50 is the concentration that inhibits the measured activity by half. Read a high IC50 as lower potency.
